In publication PMC9699089 (Pathogens, 2022):

Columns and labels:
[1] = test system: L. donovani (MHOM/IN/00/DEVI) promastigotes; test: In vitro antileishmanial activity on promastigotes, MTT assay; assay type: cell-based; settings: Leishmania donovani, 72 h incubation, mean +/- SD of three independent experiments
Experimental: L. donovani (MHOM/IN/00/DEVI) used in this study was provided by the CNR Leishmania (Montpellier, France). The effects of the tested compounds on the growth of L. donovani (MHOM/IN/00/DEVI) promastigotes were assessed by MTT assay. Briefly, promastigotes in log-phase in Schneider’s medium supplemented with 20% fetal calf serum (FCS), 2 mM L-glutamine and antibiotics (100 U/mL penicillin and 100 µg/mL streptomycin), were incubated at an average density of 10^6 parasites/mL in sterile 96-well plates with various concentrations of compounds previously dissolved in DMSO (final concentration less than 0.5% v/v), in duplicate. […] Duplicate assays were performed for each sample. After the 72 h incubation period at 27 °C, parasite metabolic activity was determined. Each well was microscopically examined for precipitate formation. To each well was added 10 µL of 10 mg/mL MTT [3-(4,5-dimethylthiazol-2-yl)-2,5-diphenyltetrazolium bromide)] solution followed by 4 h incubation time. The enzyme reaction was stopped by addition of 100 µL of 50% isopropanol/10% sodium dodecyl sulfate. Plates were vigorously shaken (300 rpm) for 10 min, and the absorbance was measured at 570 nm with 630 nm as reference wavelength in a BIOTEK ELx808 Absorbance Microplate Reader (Agilent Technologies, Les Ulis, France). […] IC50 of the parasite’s growth (half maximal inhibitory concentration or IC50 values) were then calculated from the obtained experimental results using a previously described regression program. IC50 values were calculated from three independent experiments.

[2] = test system: Plasmodium falciparum CQ-resistant strain W2; test: In vitro antiplasmodial activity, SYBR Green I fluorescence-based method, strain W2; assay type: cell-based; settings: CQ-resistant strain W2, 48 h incubation, mean of three independent experiments, read-out: P. falciparum Strains IC50 Values W2
Experimental: (§1) The in vitro antiplasmodial activities were tested over concentrations ranging from 39 nM to 40 µM against culture-adapted Plasmodium falciparum reference strains 3D7 and W2. […] These two strains are obtained from the collection of the National Museum of Natural History (Paris, France). The parasites were cultivated in RPMI medium (Sigma Aldrich, Lyon, France) supplemented with 0.5% Albumax I (Life Technologies Corporation, Paisley, UK), hypoxanthine (Sigma Aldrich), and gentamicin (Sigma Aldrich) with human erythrocytes and were incubated at 37 °C in a candle jar, as described previously. The P. falciparum drug susceptibility test was carried out in 96-well flat bottom sterile plates in a final volume of 250 µL. After 48 h incubation period with the drugs, quantities of DNA in treated and control cultures of parasites in human erythrocytes were quantified using the SYBR Green I (Sigma Aldrich) fluorescence-based method. Briefly, after incubation, plates were frozen at -20 °C until use. Plates were then thawed for 2 h at room temperature, and 100 µL of each homogenized culture was transferred to a well of a 96-well flat bottom sterile black plate (Nunc, Inc.) that contained 100 µL of the SYBR Green I lysis buffer (2xSYBR Green, 20 mM Tris base pH 7.5, 5 mM EDTA, 0.008% w/v saponin, 0.08% w/v Triton X-100). […] Plates were incubated for 1 h at room temperature and then read on a fluorescence plate reader (Tecan, Austria) using excitation and emission wavelengths of 485 and 535 nm, respectively.

[3] = test system: Plasmodium falciparum CQ-sensitive strain 3D7; test: In vitro antiplasmodial activity, SYBR Green I fluorescence-based method, strain 3D7; assay type: cell-based; settings: CQ-sensitive strain 3D7, 48 h incubation, mean of three independent experiments, read-out: P. falciparum Strains IC50 Values 3D7
Experimental: as §1

[4] = test system: Plasmodium telomeric sequence FPf8T G-quadruplex; test: FRET melting assay, FPf8T; assay type: binding, Plasmodium falciparum; settings: compound 2 μM, oligonucleotide 0.2 μM, K+ conditions
Experimental: (§2) These were performed with dual-labeled oligonucleotides mimicking the Plasmodium telomeric sequences FPf1T [FAM-5′(GGGTTTA)3-GGG3′-TAMRA] and FPf8T [FAM-5′(GGGTTCA)3GGG3′-TAMRA], the Trypanosoma 9 and 11 chromosomic sequence FTrypBT (also named FEBR1T) [FAM-5′[…]3′-TAMRA], the human telomeric sequence F21T [FAM-(GGGTTA)3-GGG3′-TAMRA] and the human duplex sequence FdxT [FAM5′-[…]-hexaethyleneglycol-[…]3′-TAMRA] [27, 31, 47]. The oligonucleotides were pre-folded in 10 mM lithium cacodylate buffer (pH 7.2), with 10 mM KCl and 90 mM LiCl (K^+ condition). The FAM emissions were recorded at 516 nm using a 492-nm excitation wavelength in the absence and presence of a single compound as a function of temperature (25 to 95 °C) in 96-well microplates using a Stratagene MX3000P real-time PCR device at a rate of 1 °C∙min-1. Data were normalized between 0 and 1, and the required temperature for half-denaturation of oligonucleotides corresponding to the emission value of 0.5 was taken as the Tm. Each experiment was performed in duplicate with 0.2 µM of labeled oligonucleotide and 2 µM of compound under K^+ condition. For each compound, three independent experiments were carried out.

[5] = test system: human telomeric sequence F21T G-quadruplex; test: FRET melting assay, F21T; assay type: binding; settings: compound 2 μM, oligonucleotide 0.2 μM, K+ conditions
Experimental: as §2

[6] = test system: Plasmodium telomeric sequence FPf1T G-quadruplex; test: FRET melting assay, FPf1T; assay type: binding, Plasmodium falciparum; settings: compound 2 μM, oligonucleotide 0.2 μM, K+ conditions
Experimental: as §2

[7] = test system: Trypanosoma 9 and 11 chromosomic sequence FTrypBT (FEBR1T) G-quadruplex; test: FRET melting assay, FtrypBT; assay type: binding, Trypanosoma brucei brucei; settings: compound 2 μM, oligonucleotide 0.2 μM, K+ conditions
Experimental: as §2

[8] = test system: T. brucei brucei AnTat 1.9; test: In vitro antitrypanosomal activity, Alamar Blue assay; assay type: cell-based, Trypanosoma brucei brucei; settings: Trypanosoma brucei, slender bloodstream trypomastigotes, AnTat 1.9 strain; mean +/- SD of three independent experiments; read-out: Trypanosoma brucei brucei IC50 Values Trypanos Antat 1.9
Experimental: The effects of the tested compounds on the growth of T. brucei brucei were assessed using an Alamar Blue® assay described by Räz et al. T. brucei brucei AnTat 1.9 ([…], Belgium) was cultured in MEM with Earle's salts, supplemented according to the protocol of Baltz et al. […] All doses were tested in duplicate. Appropriate controls treated with solvents 0.9% NaCl or DMSO or with suramin, pentamidine, eflornithine, and fexinidazole (reference drugs purchased from Sigma Aldrich and Fluorochem, UK) were added to each set of experiments. After 69 h incubation period at 37 °C, 10 μL of the viability marker Alamar Blue (Fisher) was added to each well, and the plates were incubated for 5 h. The plates were read in a PerkinElmer ENSPIRE (Germany) microplate reader using an excitation wavelength of 530 nm and an emission wavelength of 590 nm.

[9] = test system: human duplex sequence FdxT; test: FRET melting assay, duplex control FdxT; assay type: binding; settings: compound 2 μM, oligonucleotide 0.2 μM, K+ conditions
Experimental: as §2

[10] = Cytotoxicity evaluation, MTT assay; assay type: cell-based, human; settings: human
Experimental: These cells are a commonly used human hepatocarcinoma-derived cell line that has characteristics similar to those of primary hepatocytes. These cells express many hepatocyte-specific metabolic enzymes, thus enabling the cytotoxicity of tested product metabolites to be evaluated. […] Duplicate assays were performed for each sample. Each well was microscopically examined for precipitate formation before the medium was aspirated from the wells. After aspiration, 100 µL of MTT solution (0.5 mg/mL in medium without FCS) were then added to each well. […] The MTT solution was removed, and DMSO (100 µL) was added to dissolve the resulting blue formazan crystals. Plates were shaken vigorously (300 rpm) for 5 min. The absorbance was measured at 570 nm with 630 nm as reference wavelength in a BIO-TEK ELx808 Absorbance Microplate Reader. DMSO was used as blank and doxorubicin (Sigma Aldrich) as positive control. Cell viability was calculated as percentage of control (cells incubated without compound). The CC50 was determined from the dose-response curve using TableCurve 2D V5.0 software (Systat Software, Palo Alto, CA, USA).

| SMILES | IC50 [1] | IC50 [2] | IC50 [3] | ΔTm FPf8T [4] | ΔTm F21T [5] | ΔTm FPf1T [6] | ΔTm FtrypBT [7] | IC50 [8] | ΔTm FdxT [9] | CC50 at 72 h [10] |
| --- | --- | --- | --- | --- | --- | --- | --- | --- | --- | --- |
| CN(C)CCNCc1cc(-c2ccccc2)c2ccc3c(-c4ccccc4)cc(CNCCN(C)C)nc3c2n1 [Compound 1a, 2,9-Bis[(2-dimethylaminoethyl)aminomethyl]-4,7-diphenyl-1,10-phenanthroline] | > 12500 nM | 1000 ± 340 nM | 1800 ± 670 nM | 1.6 °C | 1.8 °C | 1.8 °C | 1.9 °C | 670 ± 30 nM | −0.3 °C | – |
| CN(C)CCCNCc1cc(-c2ccccc2)c2ccc3c(-c4ccccc4)cc(CNCCCN(C)C)nc3c2n1 [Compound 1b, 2,9-Bis[(3-dimethylaminopropyl)aminomethyl]-4,7-diphenyl-1,10-phenanthroline] | > 12500 nM | 6130 ± 1630 nM | 21200 ± 7720 nM | 7.9 °C | 12.8 °C | 7.4 °C | 8.7 °C | 570 ± 70 nM | −0.3 °C | 5960 ± 200 nM |
| CN1CCN(CCNCc2cc(-c3ccccc3)c3ccc4c(-c5ccccc5)cc(CNCCN5CCN(C)CC5)nc4c3n2)CC1 [Compound 1e] | > 12500 nM | 920 ± 180 nM | 2160 ± 320 nM | 10.5 °C | 9.6 °C | 9.4 °C | 8.0 °C | 450 ± 30 nM | −1.6 °C | 10500 ± 1270 nM |
| CN1CCN(CCCNCc2cc(-c3ccccc3)c3ccc4c(-c5ccccc5)cc(CNCCCN5CCN(C)CC5)nc4c3n2)CC1 [Compound 1f] | > 12500 nM | 11300 ± 2930 nM | 21500 ± 4100 nM | 10.9 °C | 10.8 °C | 8.8 °C | 9.1 °C | 970 ± 110 nM | −0.5 °C | 8620 ± 500 nM |
| CN1CCN(CCCCNCc2cc(-c3ccccc3)c3ccc4c(-c5ccccc5)cc(CNCCCCN5CCN(C)CC5)nc4c3n2)CC1 [Compound 1g] | > 12500 nM | 2480 ± 490 nM | 8190 ± 3530 nM | 14.5 °C | 11.2 °C | 13.4 °C | 12.2 °C | 960 ± 130 nM | −0.5 °C | 16800 ± 600 nM |
| c1ccc(-c2cc(CNCCN3CCOCC3)nc3c2ccc2c(-c4ccccc4)cc(CNCCN4CCOCC4)nc23)cc1 [Compound 1h] | 4500 ± 2200 nM | 170 ± 50 nM | 670 ± 210 nM | 1.9 °C | 2.0 °C | 1.8 °C | 2.2 °C | 220 ± 60 nM | −0.9 °C | 5890 ± 530 nM |
| c1ccc(-c2cc(CNCCCN3CCOCC3)nc3c2ccc2c(-c4ccccc4)cc(CNCCCN4CCOCC4)nc23)cc1 [Compound 1i] | > 12500 nM | 40 ± 10 nM | 1450 ± 580 nM | 6.7 °C | 8.2 °C | 6.7 °C | 6.0 °C | 290 ± 20 nM | −1.5 °C | 6290 ± 1060 nM |
| c1ccc(-c2cc(CNCCN3CCCCC3)nc3c2ccc2c(-c4ccccc4)cc(CNCCN4CCCCC4)nc23)cc1 [Compound 1j] | 2520 ± 200 nM | 2600 ± 550 nM | 1590 ± 590 nM | 7.3 °C | 7.7 °C | 5.6 °C | 7.2 °C | 200 ± 20 nM | 0.2 °C | 1640 ± 140 nM |
| c1ccc(-c2cc(CNCCCN3CCCCC3)nc3c2ccc2c(-c4ccccc4)cc(CNCCCN4CCCCC4)nc23)cc1 [Compound 1k] | > 12500 nM | 1650 ± 360 nM | 3180 ± 680 nM | 14.0 °C | 12.0 °C | 12.8 °C | 8.3 °C | 770 ± 100 nM | 0.4 °C | 4290 ± 520 nM |
| c1ccc(-c2cc(CNCCc3cccnc3)nc3c2ccc2c(-c4ccccc4)cc(CNCCc4cccnc4)nc23)cc1 [Compound 1n] | 2670 ± 800 nM | 2540 ± 360 nM | 710 ± 110 nM | 5.3 °C | 4.6 °C | 2.9 °C | 5.2 °C | 430 ± 30 nM | −0.3 °C | 3100 ± 190 nM |
| c1ccc(-c2cc(CNCCc3ccncc3)nc3c2ccc2c(-c4ccccc4)cc(CNCCc4ccncc4)nc23)cc1 [Compound 1o] | 2690 ± 600 nM | 1870 ± 580 nM | 730 ± 190 nM | 5.2 °C | 3.9 °C | 2.9 °C | 5.3 °C | 210 ± 10 nM | −0.3 °C | 19100 ± 2110 nM |
